Ends that are not written are not given here.
How the values were obtained:
[1] = system: HpM ccB; experiment: C-terminal thioesterification of MccA-N7G peptides by H. pylori MccB (LC-MS); format: biochemical; details: HpMccB, ATP, Mesna, 16 h
[2] = system: M ccB; experiment: Screening nucleophiles for MccB-mediated modification of MccA-N7G (LC-TOF MS); format: biochemical, E. coli; details: HPLC-MS
Method: Screening nucleophiles for MccB-mediated ligation of synthetic peptide substrates. Nucleophile were dissolved in water and adjusted to neutral pH using paper pH strips (EM D Millipore). Solutions were stored at −80° C. until further use, unless otherwise noted. M ccA-N7G (250 μM) was incubated with 5 μM MccB, 5 mM ATP, and the corresponding concentration of nucleophile in reaction buffer (25 mM Tris pH 8.0, 10 mM M gCl2). Reactions were incubated for 16 hours at room temperature and quenched with addition of an equivalent volume of 0.6% TFA. […] Extracted ion chromatogram (EIC) peak areas were calculated using Agilent TOF Quantitative Analysis v11.0. Percent conversion of substrate to nucleophile-modified product was calculated using the integrated peak areas from the substrate peptide EIC and production EIC using the formula shown below.

[3] = system: E. coli M ccB; experiment: Enzyme-coupled pyrophosphate (PPi) release assay, E. coli MccB; format: biochemical; details: MccA C-terminal variant as substrate for MccB
Source text: FIG. 31. Enzyme-coupled pyrophosphate assay for detection of M ccB-catalyzed pyrophosphate release. M ccB-catalyzes release of pyrophosphate, which is converted to phosphate by inorganic pyrophosphatase (PPiase). Purine nucleoside phosphorylase (PN Pase) uses phosphate as a substrate to convert 2-amino-6-mercapto-7-methylpurine ribonucleoside (M ESG) to ribose 1-phosphate and 2-amino-6-mercapto-7-methylpurine, which absorbs at 360 nm.
Purine nucleoside phosphorylase (PNP)/inorganic pyrophosphate (IP)-coupled kinetic assays. The kinetics of M ccB-catalyzed adenylation were characterized using an enzyme-coupled assay for detecting formation of pyrophosphate EnzCheck Pyrophosphate Assay Kit (Thermo Fisher Scientific) (FIG. 31). To screen M ccB for adenylation activity with C-terminal variants of MccA, 5 μM of the appropriate MccB variant was incubated with 0.25 mM of each M ccA variant in a reaction with 0.25 mM ATP, 5 mM M gCl2, 0.5 U/mL purine nucleoside phosphorylase (PNP), and 0.5 U/mL inorganic pyrophosphatase (IP). To screen E. coli, H. pylori, and L. johnsonii M ccB homologs for adenylation activity with MccA homologs, 5 μM of the appropriate MccB enzyme was incubated with 0.25 mM of each M ccA variant in a reaction with 0.25 mM ATP, 5 mM M gCI2, 0.5 U/mL purine nucleoside phosphorylase (PNP), and 0.5 U/mL inorganic pyrophosphatase (IP). Reactions containing HpM ccA-N7G and LjM ccA-N 7G peptides also contained 5 mM M esna and 5 mM TCEP. To collect steady-state kinetics data for individual peptide substrates, the peptide concentration was varied from 0-600 μM in a reaction with 5 μM MccB, 0.25 mM ATP, 5 mM MgCl2, 0.5 U/mL purine nucleoside phosphorylase (PNP), and 0.5 U/mL inorganic pyrophosphatase (IP). […] We therefore repeated measurements for the MccA-N7G peptide using an MccB concentration of […] and a substrate concentration range from 0-100 μM. Reactions were initiated with the addition of M ccB and absorbance at 360 nm was monitored using a Tecan Infinite M 200 plate reader. Initial rates of pyrophosphate production were calculated based on the initial rate of absorbance change and the resulting purine analog extinction coefficient (11,000 M-1 cm-1). Reactions were carried out in triplicate and data analysis was performed using GraphPad Prism 10.

[4] = system: E. coli M ccB; experiment: LC-TOF MS analysis of MccB-catalyzed AMPylation of MccA variants; format: biochemical; details: for formation of stably AMPylated product: HPLC-MS assay
Method: LC-TOF MS analysis of M ccB reactions with synthetic peptide substrates. […] Reactions were incubated for 16 hours at room temperature and quenched with addition of an equivalent volume of 0.6% TFA. These reaction conditions were used for M ccBs from E. coli, H. pylori, L. johnsonii, and H. somni.
LC-TOF MS analysis of M ccB-catalyzed N-AM Pylation of M ccA positional scanning peptide library. MccA variants were synthesized individually in-house (according to Solid-phase peptide synthesis) or were purchased from Peptide2.0. […] Reactions were incubated for 16 hours at room temperature and quenched with addition of an equivalent volume of 0.6% TFA. […] Percent conversion was calculated using peak areas from substrate and product EICs. Raw data are available in the Dryad repository at DOI: 10.5061/dryad.c59zw3rkb.

[5] = system: HsM ccB; experiment: H. somni MccB-catalyzed peptide thioester synthesis; format: biochemical; details: for thioesterification: Mesna as thiol donor
Method: Reactions were incubated for 16 hours at room temperature and quenched with addition of an equivalent volume of 0.6% TFA. […] To screen the ability of H. somni M ccB to catalyze thioesterification of HsLACE peptides, reactions contained M ccB ([…]), ATP (5 mM), M gCl2 (5 mM), peptide substrate (0.25 mM), 25 mM M esna or AcCysNHM e, and reaction buffer (100 mM HEPES, pH 8.0).
H. somni M ccB-catalyzed peptide thioester synthesis. For screening the activity of HsM ccB on HsTeCH, HsLACE1-4, and LACE substrate peptide, […] reactions were prepared that contained 100 mM HEPES, pH 8.0, HsM ccB ([…]), HsTeCH, HsLACE1-4, or LACE peptide ([…]), ATP (5 mM), M gCl2 (5 mM), and thiol (M esna or AcCysNHMe, 25 mM). Reactions were initiated by addition of HsM ccB and incubated for 16-20 h at room temperature. Raw data are available in the Dryad repository at DOI: 10.5061/dryad.c59zw3rkb.

[6] = system: M ccB; experiment: MccB-catalyzed C-terminal thioesterification / Cys ligation of TeCH-tag fusion proteins (intact protein LC-MS); format: biochemical, E. coli; details: ATP (5 mM), Mesna (5 mM)
Method: M ccB-mediated ligation of GFP-MccA-N7G protein substrates. GFP-M ccA-N7G variant (50 μM) was incubated with 5 μM MccB, 5 mM ATP, and the appropriate concentration of cysteine or Mesna/TCEP in reaction buffer (25 mM Tris pH 8.0, 10 mM M gCl2). Reactions were incubated at room temperature for the indicated times. For labeling time course experiments, reactions were quenched with the addition of an equivalent volume of 0.6% TFA.

Chain of HpM ccB (as listed by the source): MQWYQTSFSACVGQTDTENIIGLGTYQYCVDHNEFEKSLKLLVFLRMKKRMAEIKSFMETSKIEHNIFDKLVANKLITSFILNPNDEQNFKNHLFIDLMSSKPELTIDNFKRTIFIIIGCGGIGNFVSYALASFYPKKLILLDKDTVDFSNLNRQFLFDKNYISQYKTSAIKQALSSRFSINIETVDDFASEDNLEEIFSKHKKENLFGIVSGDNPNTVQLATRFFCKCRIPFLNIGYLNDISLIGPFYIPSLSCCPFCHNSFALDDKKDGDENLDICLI

MHRIMKN (listed as Lactobacillus johnsonii) [LjM ccA, at b127 probably the N7G variant is meant, reference compound]
conversion to C-terminal thioester, yield [1]: 13%

C#CCCNC(=O)c1ccc(CCNN)cc1 [N-(but-3-yn-1-yl)-4-(2-hydrazineylethyl)benzamide]
capture of O-AMPylated intermediate / modification of MccA-N7G C terminus by nucleophile [2]: unable to modify

O=C(O)Cc1ccc(S)cc1 [M PAA, 4-mercaptophenylacetic acid]
capture of O-AMPylated intermediate / modification of MccA-N7G C terminus by nucleophile [2]: inability

Cl.NO [hydroxylamine, hydroxylamine hydrochloride]
capture of O-AMPylated intermediate / modification of MccA-N7G C terminus by nucleophile [2]: efficient capture

MccA-N7T: E. coli MccA (MRTGNAN) with C-terminal Asn varied to Thr (MRTGNAT)
stimulation of PPi formation [3]: substantial stimulation | formation of stably AMPylated product [4]: no stably A M Pylated product was observed

MLRLRGG (listed as Histophilus somni) [HsLACE4]
thioesterification [5]: < 1%

MRTGNAN (listed as Escherichia coli) [wild-type M ccA, reference compound]
formation of C-terminally N-AMPylated phosphoramidate product ([4]; positional scanning library, 16 h): fully converted

MccA-N7A: E. coli MccA (MRTGNAN) with C-terminal Asn varied to Ala (MRTGNAA)
stimulation of PPi formation [3]: substantial stimulation | formation of stably AMPylated product [4]: no stably A M Pylated product was observed

M KLSY RG (MKLSYRG) [HpM ccA-N7G]
conversion to C-terminal thioester, yield [1]: > 97%

MccA-N7S: E. coli MccA (MRTGNAN) with C-terminal Asn varied to Ser (MRTGNAS)
stimulation of PPi formation [3]: substantial stimulation | formation of stably AMPylated product [4]: no stably A M Pylated product was observed

LRLRGG (not fully specified (C-terminus))
thioesterification [5]: 18%

Cys-Trp
capture of O-AMPylated intermediate / modification of MccA-N7G C terminus by nucleophile [2]: no modification

CNC(=O)[C@H](CS)NC(C)=O [A cCysNHM e]
thiol donor for HsMccB-catalyzed thioesterification [5]: poor thiol donor

B1: protein L: protein L with C-terminal TeCH-tag (SEQ ID NO: 75) (protein)
chain: MHHHHHHKEETPETPETDSEEEVTIKANLIFANGSTQTAEFKGTFEKATSEAYAYADTLKKDNGEYTVDVADKGYTLNIKFAGKEKTPEEPKEEVTIKANLIYADGKTQTAEFKGTFEEATAEAYRYADALKKDNGEYTVDVADKGYTLNIKFAGKEKTPEEPKEEVTIKANLIYADGKTQTAEFKGTFEEATAEAYRYADLLAKENGKYTVDVADKGYTLNIKFAGKEKTPEEPKEEVTIKANLIYADGKTQTAEFKGTFAEATAEAYRYADLLAKENGKYTADLEDGGYTINIRFAGKKVDEKPEEKEQVTIKENIYFEDGTVQTATFKGTFAEATAEAYRYADLLSKEHGKYTADLEDGGYTINIRFAGGGGSGGGSMRTGNAG
modifications: C-terminal TeCH-tag; Linker and MccB recognition sequence
time to complete conversion to thioester [6]: 16 h

B2: a-GFP rAb (protein)
light: SDIQMTQSPSSLSASVGDRVTITCRASQSVSSAVAWYQQKPGKAPKLLIYSASSLYSGVPSRFSGSRSGTDFTLTISSLQPEDFATYYCQQSWGLITFGQGTKVEIKRTVAAPSVFIFPPSDSQLKSGTASVVCLLNNFYPREAKVQWKVDNALQSGNSQESVTEQDSKDSTYSLSSTLTLSKADYEKHKVYACEVTHQGLSSPVTKSFNRGEC
heavy: EISEVQLVESGGGLVQPGGSLRLSCAASGFNISYYSIHWVRQAPGKGLEWVASIYPYYSSTSYADSVKGRFTISADTSKNTAYLQMNSLRAEDTAVYYCARAGWVASSGMDYWGQGTLVTVSSASTKGPSVFPLAPSSKSTSGGTAALGCLVKDYFPEPVTVSWNSGALTSGVHTFPAVLQSSGLYSLSSVVTVPSSSLGTQTYICNVNHKPSNTKVDKKVEPKSCGGGGGMRTGNAGAFAGAGSK
modifications: non-natural residues; cyclised or stapled
time to complete conversion to thioester [6]: 16 h

B3: PTP 1B 1-321: catalytic domain of protein tyrosine phosphatase 1B with TeCH-tag (SEQ ID NO: 76) (protein)
chain: MGHHHHHHDYDIPTTENLYFQGSMEMEKEFEQIDKSGSWAAIYQDIRHEASDFPCRVAKLPKNKNRNRYRDVSPFDHSRIKLHQEDNDYINASLIKMEEAQRSYILTQGPLPNTCGHFWEMVWEQKSRGVVMLNRVMEKGSLKCAQYWPQKEEKEMIFEDTNLKLTLISEDIKSYYTVRQLELENLTTQETREILHFHYTTWPDFGVPESPASFLNFLFKVRESGSLSPEHGPVVVHCSAGIGRSGTFCLADTCLLLMDKRKDPSSVDIKKVLLEMRKFRMGLIQTADQLRFSYLAVIEGAKFIMGDSSVQDQWKELSHEDLEPPPEHIPPPPRPPKRILEPHNGGGGMRTGNAG
modifications: TeCH-tag; N-terminal His tag and TEV protease cleavage site sequence; Linker and MccB recognition sequence
time to complete conversion to thioester [6]: 1 h

Reference: patent publication US20250346938A1, “ATP-DEPENDENT C-TERMINAL MODIFICATION OF POLYPEPTIDES” (Wisconsin Alumni Research Foundation, priority 2024, published 2025)
